Measured values: patent publication US20030221207A1, “Cardiac-specific 11beta hydroxysteroid dehydrogenase type 2 transgenic mice” (Pharmacia Corporation, Global Patent Department, priority 2002, published 2003)

System: 11βhsd2 cardiac-specific transgenic mice
Assay: Eplerenone treatment of 11βhsd2 cardiac-specific transgenic mice, echocardiography
Format: in vivo, mouse
Settings: male transgenic mice, chow containing eplerenone approx. 200 mg/kg/day from 4 weeks of age
Protocol: Starting at 4 weeks of age male transgenic mice were supplied with either chow containing eplerenone (approximate dose of 200 mg/kg/day) to eat or normal chow.
Echocardiograms were acquired using a Sonos 5500 echocardiographic system equipped with a 15-MHz linear-array transducer (Agilent, Andover, Mass.). Images were obtained from mice lightly anesthetized with 1-2% isoflurane (AErrane; Baxter, Inc., Deerfield, Ill.) lying in the left lateral decubitus position. Care was taken to maintain adequate contact while avoiding excessive pressure on the chest wall. Two-dimensional parasternal long and short-axis images of the left ventricle were obtained. Two-dimensional targeted M-mode tracings were recorded from the parasternal short-axis view at the level of the papillary muscles at a sweep speed of 150 mm/s. All echocardiograms were recorded digitally on a rewritable magneto-optical disk. Measurements and calculations used are as follows: Left Ventricular End diastolic (EDV) and systolic (ESV) volumes were calculated via the method of discs from direct measurement systolic (LVAs) and diastolic (LVAd) areas. Ejection Fraction (EF) was calculated from systolic and diastolic volumes with the following formula: EF=(EDV−ESV)/EDV×100. […] Heart rate (HR) was calculated by measuring the R-R interval in M-mode and using the formula: HR=60(sec/min)/R-R interval(sec/beat). […]

COC(=O)[C@@H]1CC2=CC(=O)CC[C@]2(C)[C@@]23O[C@@H]2C[C@@]2(C)[C@@H](CC[C@@]24CCC(=O)O4)[C@H]13 [eplerenone] was tested, and the “development of left ventricular dysfunction and heart failure” value (2.5 months of treatment) was “significantly attenuated” and the myocardial function (after 2.5 months of treatment, versus normal chow) was “significantly improved”.
